Source: patent US9914914B2, “Polymerase capable of producing non-DNA nucleotide polymers” (Medical Research Council, priority 2012, dated 2018)

What was measured:
Ramos = experiment: IC50 of nucleoside drugs and TempN polymer on Ramos cells; format: cell-based; settings: Homo sapiens
Procedure: The polymer linked to the targeting protein was then mixed with Nanocargo transfection reagent according to the manufacturer's instructions (Tecrea, UK), and added to Ramos cells at a final concentration of 40 nM (polymer concentration). After 96 hours incubation in a humidified atmosphere at 37° C. (5% CO2), WST-1 reagent (Roche, UK) was added to the cells to measure cell growth inhibition (FIG. 42). […] Only when the toxic polymer is targeted to the Ramos cells via CD20 is cell growth inhibited.

CCRF-CEM = experiment: IC50 of nucleoside drugs and TempN polymer on CCRF-CEM cells; format: cell-based; settings: Homo sapiens
FANA template = experiment: FANA reverse transcriptase screen (PCR from cDNA); format: biochemical; settings: judged by PCR from the cDNA
Procedure: ANA and FANA were synthesised using D4YK from DNA primers against a biotinylated template. This was captured onto streptavidin-coated paramagnetic beads and the nascent ANA or FANA strand eluted using two washes in 30 mM NaOH. The single stranded products were neutralised, ethanol precipitated and used as a template to screen a panel of commercial polymerases as well as in-house engineered polymerases for RT activity.
We have learnt that RT-521 must be removed before PCR as even low concentrations of RT-521 inhibit PCR. In this case, the reverse transcription reactions were purified by Exol (NEB) treatment to remove unextended primers and 0.05 volumes (1 μl out of 20 μl reaction) were used as template for 20 μl PCR with FastStart Taq (Roche). If the reactions had been purified by a method which removed RT-521 (e.g. silica column or phenol:chloroform extraction) the PCR for the RT-521 reaction would have been expected to be positive, as observed in other experiments (FIG. 19).

Row | Molecule | IC50 (Ramos) | IC50 (CCRF-CEM) | FANA RT activity (FANA template)
1 | Nc1nc(F)nc2c1ncn2[C@@H]1O[C@H](CO)[C@@H](O)[C@@H]1O [Fludarabine, 9-beta-D-arabinofuranosyl-2′fluoroadenosine] | 1300 nM | 864 nM | 
2 | Nc1nc2c(ncn2[C@@H]2O[C@H](CO)C(O)C2O)c(=O)[nH]1 (stereo partly drawn) [AraG, 9-beta-D-arabinofuranosyl-guanosine] | ~100000 nM | 884 nM | 
3 | Therminator: 9° N exo−: A485L polymerase, commercial (protein, listed as Thermococcus gorgonarius) MILDTDYITEDGKPVIRIFKKENGEFKIDYDRNFEPYIYALLKDDSAIEDVKKITAERHGTTVRVVRAEKVKKKFLGRPIEVWKLYFTHPQDVPAIRDKIKEHPAVVDIYEYDIPFAKRYLIDKGLIPMEGDEELKMLAFDIETLYHEGEEFAEGPILMISYADEEGARVITWKNIDLPYVDVVSTEKEMIKRFLKVVKEKDPDVLITYNGDNFDFAYLKKRSEKLGVKFILGREGSEPKIQRMGDRFAVEVKGRIHFDLYPVIRRTINLPTYTLEAVYEAIFGQPKEKVYAEEIAQAWETGEGLERVARYSMEDAKVTYELGKEFFPMEAQLSRLVGQSLWDVSRSSTGNLVEWFLLRKAYERNELAPNKPDERELARRRESYAGGYVKEPERGLWENIVYLDFRSLYPSIIITHNVSPDTLNREGCEEYDVAPQVGHKFCKDFPGFIPSLLGDLLEERQKVKKKMKATIDPIEKKLLDYRQRLIKILANSFYGYYGYAKARWYCKECAESVTAWGRQYIETTIREIEEKFGFKVLYADTDGFFATIPGADAETVKKKAKEFLDYINAKLPGLLELEYEGFYKRGFFVTKKKYAVIDEEDKITTRGLEIVRRDWSEIAKETQARVLEAILKHGDVEEAVRIVKEVTEKLSKYEVPPEKLVIYEQITRDLKDYKATGPHVAVAKRLAARGIKIRPGTVISYIVLKGSGRIGDRAIPFDEFDPAKHKYDAEYYIENQVLPAVERILRAFGYRKEDLRYQKTRQVGLGAWLKPKT |  |  | weak FANA RT activity

Continued, values first:

Row | IC50 (Ramos) | IC50 (CCRF-CEM) | FANA RT activity (FANA template) | Molecule
4 | 22.7 nM | 12.9 nM |  | Nc1ccn([C@@H]2O[C@H](CO)C(O)C2O)c(=O)n1 (stereo partly drawn) [AraC, 9-beta-D-arabinofuranosyl-cytidine]
5 | 1.6 nM | 11.7 nM |  | Nc1ccn([C@@H]2O[C@H](CO)C(O)C2(F)F)c(=O)n1 (stereo partly drawn) [GemC, 2′2′-difluorodeoxycytidine]
6 | 18 nM | 20 nM |  | Nc1nc(Cl)nc2c1ncn2[C@@H]1O[C@H](CO)[C@@H](O)[C@@H]1F [Clofarabine, 9-beta-D-fluoroarabinosyl-2′chloroadenosine]
7 |  |  | robust FANA RT activity | RT-521K: Tgo V93Q, D141A, E143A, A485L, I521L, E664K, K726R, A385V; SEQ ID NO:14 (protein, T. go derived polymerase designated RT-521K) MILDTDYITEDGKPVIRIFKKENGEFKIDYDRNFEPYIYALLKDDSAIEDVKKITAERHGTTVRVVRAEKVKKKFLGRPIEVWKLYFTHPQDQPAIRDKIKEHPAVVDIYEYDIPFAKRYLIDKGLIPMEGDEELKMLAFAIATLYHEGEEFAEGPILMISYADEEGARVITWKNIDLPYVDVVSTEKEMIKRFLKVVKEKDPDVLITYNGDNFDFAYLKKRSEKLGVKFILGREGSEPKIQRMGDRFAVEVKGRIHFDLYPVIRRTINLPTYTLEAVYEAIFGQPKEKVYAEEIAQAWETGEGLERVARYSMEDAKVTYELGKEFFPMEAQLSRLVGQSLWDVSRSSTGNLVEWFLLRKAYERNELAPNKPDERELARRRESYVGGYVKEPERGLWENIVYLDFRSLYPSIIITHNVSPDTLNREGCGEYDVAPQVGHKFCKDLPGFIPSLLGDLLEERQKVKKKMKATIDPIEKKLLDYRQRLIKILANSFYGYYGYAKARWYCKECAESVTAWGRQYLETTIREIEEKFGFKVLYADTDGFFATIPGADAETVKKKAKEFLDYINAKLPGLLELEYEGFYKRGFFVTKKKYAVIDEEDKITTRGLEIVRRDWSEIAKETQARVLEAILKHGDVEEAVRIVKEVTEKLSKYEVPPEKLVIYKQITRDLKDYKATGPHVAVAKRLAARGIKIRPGTVISYIVLKGSGRIGDRAIPFDEFDPAKHRYDAEYYIENQVLPAVERILRAFGYRKEDLRYQKTRQVGLGAWLKPKT
